Test results from US4973675A, “Hybrid nitrosoureidoanthracyclines having antitumor activity” (University of Tennessee Research Center, priority 1989, dated 1990).
pIC50: −log10 of the molar value. Where two headings read alike, the source gives them in different places.

Tests used:
[1] = system: human CEM leukemic lymphocytes; assay: Growth inhibition of human CEM leukemic lymphocyte suspension cultures, 48 h continuous drug exposure (ID50); type: cell-based; settings: Homo sapiens, Lymphocyte
Experimental: Culture and bioassay conditions were as described in Cancer Chemotherapy Pharmacology 20:277 (1987) "Comparative Effects of Adriamycin and DNA-nonbinding Analogues on DNA, RNA, and Protein Synthesis in Vitro", Israel et al., except that cell counts were determined by hemocytometer rather than by automated cell counting.

[2] = Solubility in water or saline; type: physicochemical
Experimental: Accordingly, the compounds are formulated for administration by dissolving the compound in a pharmaceutically acceptable non-toxic carrier which contains a surfactant. The present inventors employ a formulation of 10% Cremaphor EL (a polyhydroxylated castor oil derivative) available from BASF Chemicals, 10% ethanol and 80% aqueous media (sterile water or saline solution). That quantity of the compound desired for establishing an effective dose is dissolved in a 1:1 mixture of Cremaphor EL and ethanol. Thereafter, sufficient aqueous medium is added with stirring to develop a final formulation containing 80% aqueous medium. This formulation is administered parenterally.

[3] = CEM, 48 hr continuous drug exposure (Table 2), read-out: ID50 (the source's name)

| SMILES | pIC50 [1, 3] | also measured |
| --- | --- | --- |
| CCOC(=O)NC(=S)N[C@H]1C[C@H](O[C@H]2C[C@](O)(C(=O)CO)Cc3c(O)c4c(c(O)c32)C(=O)c2c(OC)cccc2C4=O)O[C@@H](C)[C@H]1O [AD 360] | 6.44 |  |
| COc1cccc2c1C(=O)c1c(O)c3c(c(O)c1C2=O)C[C@@](O)(C(C)=O)C[C@@H]3O[C@H]1C[C@@H]2NC(=O)O[C@@H]2[C@H](C)O1 [AD 362] | 6.06 |  |
| CCNC(=O)N[C@H]1C[C@H](O[C@H]2C[C@](O)(C(=O)CO)Cc3c(O)c4c(c(O)c32)C(=O)c2c(OC)cccc2C4=O)O[C@@H](C)[C@H]1O [AD 344] |  | pIC50 ([1]; 48 h, read-out: ID50): 6.24 |
| COc1cccc2c1C(=O)c1c(O)c3c(c(O)c1C2=O)C[C@@](O)(C(=O)CO)C[C@@H]3O[C@H]1C[C@H](NC(=O)N(CCCl)N=O)[C@H](O)[C@H](C)O1 [AD 337] |  | solubility ([2]; water or saline solution): essentially insoluble in water or saline solution; solubility ([2]; water, of the order of, read-out: solubility in water): < 25 µg/mL |

Further lines, with some results ahead:

| pIC50 [1, 3] | SMILES | also measured |
| --- | --- | --- |
| 5.94 | COc1cccc2c1C(=O)c1c(O)c3c(c(O)c1C2=O)C[C@@](O)(C(=O)CO)C[C@@H]3O[C@H]1C[C@H](NC(=O)Nc2ccc(F)cc2)[C@H](O)[C@H](C)O1 [AD 356] |  |
| < 6.00 | COc1cccc2c1C(=O)c1c(O)c3c(c(O)c1C2=O)C[C@@](O)(C(C)=O)C[C@@H]3O[C@H]1C[C@H](NC(=O)Nc2ccccc2)[C@H](O)[C@H](C)O1 [AD 309] |  |
